36 compounds from ChEMBL document CHEMBL1201862, “PubChem BioAssay data set” (2004) can be followed below.

Calls of active or inactive are those of the source. Rule as the data show it, for most assays here: actives have a measured EC50 and inactives only a lower limit.

The target of assay [1] is T1, Protein skinhead-1 (Caenorhabditis elegans, UniProt P34707).
T1 sequence (P34707 whole entry): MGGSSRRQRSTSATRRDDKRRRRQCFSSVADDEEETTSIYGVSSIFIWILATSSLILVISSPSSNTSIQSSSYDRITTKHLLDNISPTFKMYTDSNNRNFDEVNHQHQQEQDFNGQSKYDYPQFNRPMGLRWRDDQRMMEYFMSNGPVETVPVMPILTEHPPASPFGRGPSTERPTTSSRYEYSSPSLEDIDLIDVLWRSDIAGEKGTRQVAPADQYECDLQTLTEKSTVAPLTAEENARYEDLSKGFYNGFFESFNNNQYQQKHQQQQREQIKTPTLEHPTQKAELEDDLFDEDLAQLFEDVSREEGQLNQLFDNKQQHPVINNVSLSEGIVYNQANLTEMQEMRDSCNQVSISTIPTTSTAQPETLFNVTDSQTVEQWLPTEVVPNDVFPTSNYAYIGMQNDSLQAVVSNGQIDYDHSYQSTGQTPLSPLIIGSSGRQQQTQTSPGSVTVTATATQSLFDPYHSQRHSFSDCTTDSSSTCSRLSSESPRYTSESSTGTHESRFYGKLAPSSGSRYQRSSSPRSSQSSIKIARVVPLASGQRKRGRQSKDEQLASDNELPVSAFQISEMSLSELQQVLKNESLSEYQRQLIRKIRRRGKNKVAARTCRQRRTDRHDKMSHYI
The format is functional.

Assay [2] is described as follows: Luminescence Cell-Based Dose Response HTS to Identify Inhibitors of 5'UTR Stem-Loop Driven Prion Protein mRNA Translation in H4 Neuroglioblastoma Cells. [Related pubchem assays: 1827 (Project Summary), 1813 (Primary HTS)]. The format is functional.
A short description of assay [3]: alpha-synuclein stem-loop luciferase translation blockers – H4 neuroglioma cells, luminescence, confirmation (AID 1988). In kind it is functional, cell-based.
The nature of assay [4]: luciferase reporter signal suppression in cells – H4 neuroglioma cells, luminescence, dose response (AID 1990). The format is functional, cell-based.
For assay [5], the target named is T2, Heat shock factor protein 1 (Mus musculus, UniProt P38532).
T2 sequence (P38532 whole entry): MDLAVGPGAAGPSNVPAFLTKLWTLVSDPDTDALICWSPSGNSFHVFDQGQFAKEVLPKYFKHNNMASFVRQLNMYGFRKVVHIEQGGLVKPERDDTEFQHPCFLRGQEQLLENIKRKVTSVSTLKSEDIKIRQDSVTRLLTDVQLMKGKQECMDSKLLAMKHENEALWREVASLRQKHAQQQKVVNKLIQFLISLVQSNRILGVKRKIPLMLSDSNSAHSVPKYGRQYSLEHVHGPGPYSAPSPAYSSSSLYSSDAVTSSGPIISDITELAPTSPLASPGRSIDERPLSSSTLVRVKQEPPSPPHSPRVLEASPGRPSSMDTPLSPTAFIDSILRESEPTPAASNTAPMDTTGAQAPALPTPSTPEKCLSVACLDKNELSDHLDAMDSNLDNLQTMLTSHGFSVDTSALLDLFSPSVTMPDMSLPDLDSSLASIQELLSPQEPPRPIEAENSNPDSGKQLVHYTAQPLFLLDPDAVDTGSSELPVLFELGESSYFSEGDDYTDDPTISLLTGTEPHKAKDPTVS
As to the kind of experiment: decrease of HSF1-responsive luciferase luminescence – cell-based, NIH3T3, dose retest, confirmation (AID 2382).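 Also: NIH3T3 fibroblasts with HSF1-driven luciferase reporter stressed by proteasome inhibitor MG132; luminescence from HSF1-driven luciferase expression after 8 hours of MG132 stress.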 The format is functional.

Assay [6] concerns the target T3, Protein RecA (Mycobacterium tuberculosis, UniProt P9WHJ3).
T3 sequence (P9WHJ3 whole entry): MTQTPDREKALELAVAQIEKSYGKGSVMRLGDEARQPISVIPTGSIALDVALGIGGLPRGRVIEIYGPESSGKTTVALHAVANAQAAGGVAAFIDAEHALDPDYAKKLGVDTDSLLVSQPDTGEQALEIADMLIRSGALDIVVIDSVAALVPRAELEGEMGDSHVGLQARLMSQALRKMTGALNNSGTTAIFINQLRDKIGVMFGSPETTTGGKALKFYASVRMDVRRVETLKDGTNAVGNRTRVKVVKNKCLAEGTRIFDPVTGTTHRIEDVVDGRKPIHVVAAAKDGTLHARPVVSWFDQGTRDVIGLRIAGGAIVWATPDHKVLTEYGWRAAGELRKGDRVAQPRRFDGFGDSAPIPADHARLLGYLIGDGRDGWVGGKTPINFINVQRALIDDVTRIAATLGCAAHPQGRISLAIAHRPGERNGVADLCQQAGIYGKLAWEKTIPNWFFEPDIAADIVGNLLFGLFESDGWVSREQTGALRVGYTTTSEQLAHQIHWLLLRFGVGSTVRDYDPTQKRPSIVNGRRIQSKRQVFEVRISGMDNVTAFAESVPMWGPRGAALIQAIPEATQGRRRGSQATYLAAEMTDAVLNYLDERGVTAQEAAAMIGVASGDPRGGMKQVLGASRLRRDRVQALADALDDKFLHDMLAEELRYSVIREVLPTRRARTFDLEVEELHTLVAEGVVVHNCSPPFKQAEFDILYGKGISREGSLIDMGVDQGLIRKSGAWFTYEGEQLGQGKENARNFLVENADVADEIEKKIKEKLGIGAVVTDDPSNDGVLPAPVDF
The assay can be described thus: Fluorescence Cell-Free Homogeneous Dose Retest to Identify Inhibitors of RecA-Intein Splicing Activity. [Related pubchem assays (depositor defined):AID2097, AID2223, AID489010, AID492950]. In kind it is functional.

For assay [7], the target named is T4, Replicative DNA helicase DnaB (Mycobacterium tuberculosis, UniProt P9WMR3).
T4 sequence (P9WMR3 whole entry): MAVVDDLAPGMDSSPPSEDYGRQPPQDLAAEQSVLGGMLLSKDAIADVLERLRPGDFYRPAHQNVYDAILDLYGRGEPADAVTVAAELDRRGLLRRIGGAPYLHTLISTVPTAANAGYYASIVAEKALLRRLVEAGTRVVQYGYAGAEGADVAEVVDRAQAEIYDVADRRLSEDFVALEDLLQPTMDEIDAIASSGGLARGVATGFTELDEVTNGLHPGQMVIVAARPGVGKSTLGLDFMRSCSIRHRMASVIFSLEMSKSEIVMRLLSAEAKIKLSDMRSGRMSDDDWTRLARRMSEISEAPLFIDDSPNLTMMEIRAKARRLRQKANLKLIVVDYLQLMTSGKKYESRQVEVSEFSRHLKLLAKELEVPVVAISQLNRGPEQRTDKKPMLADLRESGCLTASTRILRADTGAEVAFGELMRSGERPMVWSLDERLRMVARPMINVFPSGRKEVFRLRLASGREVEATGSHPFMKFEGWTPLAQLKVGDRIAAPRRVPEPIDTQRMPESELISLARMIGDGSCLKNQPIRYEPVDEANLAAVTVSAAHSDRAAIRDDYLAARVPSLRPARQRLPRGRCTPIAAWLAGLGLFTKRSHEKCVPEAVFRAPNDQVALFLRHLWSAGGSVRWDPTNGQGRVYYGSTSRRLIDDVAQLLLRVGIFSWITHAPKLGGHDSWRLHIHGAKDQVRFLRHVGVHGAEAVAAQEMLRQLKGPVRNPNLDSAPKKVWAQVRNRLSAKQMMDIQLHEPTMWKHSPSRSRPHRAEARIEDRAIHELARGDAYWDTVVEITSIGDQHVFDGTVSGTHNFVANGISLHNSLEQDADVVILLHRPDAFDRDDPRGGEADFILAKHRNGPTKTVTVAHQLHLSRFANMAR
The assay can be described thus: DnaB intein splicing inhibitors, dose response, biochemical, cell-free fluorescence (AID 449749). The format is functional.

Assay [8] in a line: Luminescence Cell-Based Dose Response HTS to Identify Activators of Luciferase Translation or Activity in H4 […] Cells. [Related pubchem assays: 1829 (Project Summary), 1814 (Primary HTS)]. The format is functional.
Assay [9] relates to H4. As to the kind of experiment: Luminescence Cell-Based Dose Response HTS to Identify Activators of 5'UTR Stem-Loop Driven Prion Protein mRNA Translation in H4 Neuroglioblastoma Cells. [Related pubchem assays: 1829 (Project Summary), 1814 (Primary HTS)]. The format is functional. The settings on record: Homo sapiens.

As a reminder, the IC50 is the concentration that gives 50% inhibition. Take `Brc1ccc(-c2nc(-c3ccncc3)no2)o1`: the IC50 in assay [1] is 86.1 µM (inactive).
One may read the EC50 as the midpoint of the concentration-response curve. For `Cc1ccccc1Cn1nnc2c1C(=O)c1ccccc1C2=O`, the EC50 in [2] was > 120 µM (not active); in [3], > 60 µM (not active); in assay [4], > 120 µM (not active).
As for `CC(=O)/C(=N\Nc1ccc(Cl)cc1)Sc1nnc(-c2ccccc2)n1-c1ccccc1`, in [5], the EC50 is > 195 µM (not active).
Consider `CC(C)CCn1c(N)c(S(=O)(=O)c2cccs2)c2nc3ccccc3nc21`, for which the EC50 was > 120 µM (not active) in [2], > 120 µM (not active) in assay [3] and 69 µM (active) in [4].
`O=C(c1cnn2c(C(F)F)cc(-c3ccccc3)nc12)N1CCCc2ccccc21`: the EC50 in [2] is 23.8 µM (active); in [3] it was 26.3 µM (active); in assay [4] it was 19.2 µM (active).
By AC50 is commonly meant the concentration at which the activity in the assay is half-maximal. Turning to `O=S(=O)(Nc1c(O)ccc2ccccc12)c1ccc(F)cc1`, the EC50 in assay [6] was 1.16 µM (active). Also, in assay [7], the AC50 is 12.2 µM (active).
Consider `CC(C)CCNC(=O)c1cnn2c(C(F)(F)F)cc(-c3ccco3)nc12`, for which, in assay [1], the IC50 was > 100 µM (inactive).
On to `Cc1n[nH]c2c1C(c1ccco1)C(C#N)=C(N)O2` (centres undefined), for which the EC50 in [6] is 4.28 µM (active). The AC50 in [7] was 54.1 µM (active).
As to `CC(Oc1ccc(Cl)cc1)c1ccnn1S(C)(=O)=O` (centres undefined), the IC50 in assay [1] was > 100 µM (inactive).
Regarding `C/C(CC(=O)Nc1ccccn1)=N\NC(=O)c1cccc(C)c1`, in assay [6], the EC50 was 7.75 µM (active). For the same compound, the AC50 in [7] is 20.1 µM (active).
Turning to `O=S(=O)(c1cc(Cl)ccc1Cl)N1CCC2(CC1)OCCO2`, the EC50 in [5] was > 195 µM (not active).
In the case of `O=C(c1cnn2c(C(F)(F)F)cc(-c3ccco3)nc12)N1CCCc2ccccc21`, the IC50 in assay [1] is > 100 µM (inactive).
For the compound `O=C(c1ccccc1)N1C(=O)C(c2ccccc2)Oc2ccccc21` (centres undefined), the EC50 in assay [2], in [3] and in assay [4] was > 120 µM (not active) in each case.
In the case of `O=C(OCc1ccccc1)c1ccc2c(c1)-c1ccccc1C2=O`, the EC50 in assay [8] was 14.8 µM (active); in assay [9], 11.1 µM (active).
Consider `Cc1ccc(Cl)c(N/C=C/C(=O)c2ccccc2)c1`, for which the concentration for half-maximal inhibition (IC50) in assay [1] was 27.9 µM (active).
Regarding `Cn1c(SCC(=O)NCC2CCCO2)ncc(C(=O)Nc2ccc(F)cc2)c1=O` (centres undefined), the EC50 in assay [6] is 0.315 µM (active). Besides, the AC50 in assay [7] is 0.51 µM (active).
`N#Cc1cc([N+](=O)[O-])ccc1NC(=O)COC(=O)CCC1CCCCC1`: the EC50 in assay [6] is 3.31 µM (active). Moreover, the AC50 in assay [7] is 1.72 µM (active).
`COCCCNC(=O)COc1ccc2oc3c(c2c1)CCCC3`: the IC50 in assay [1] is > 100 µM (inactive).
Turning to `O=S(=O)(O)Oc1c[nH]c2ccccc12`, the EC50 in assay [6] was 0.155 µM (active). Besides, the concentration at half-maximal activity (AC50) in assay [7] was 1.34 µM (active).
With `O=[N+]([O-])c1ccc(OCc2cnc(Cl)s2)cc1`, the IC50 in assay [1] is 50.3 µM (inactive).
Take `O=C(Nc1ccc(N2CCN(c3ccc(O)cc3)CC2)cc1)Oc1ccccc1`: the EC50 in [5] is recorded as > 195 µM (not active).
For `Cc1ccc(-c2nnc(-c3cccs3)o2)cc1`, the IC50 in assay [1] was 35.5 µM (active).
For `CCOc1ccc(CNS(=O)(=O)c2c(C)nc3scc(C)n3c2=O)cc1OC`, the EC50 in [5] is > 195 µM (not active).
Take `N#CC1=C(N)Oc2[nH]nc(-c3cccs3)c2C1c1ccoc1` (centres undefined): in [6], the EC50 was 7.09 µM (active). Moreover, in assay [7], the concentration at half-maximal activity (AC50) is 10.4 µM (active).
As for `O=C(Nc1nc(C(F)(F)F)n[nH]1)c1cccs1`, in assay [6], the concentration giving a half-maximal response (EC50) was 9.84 µM (active). For the same compound, the AC50 in assay [7] is 3.65 µM (active).
For `Cc1cc(=O)n(-c2ccccc2Cl)[nH]1`, the EC50 in assay [6] was 5.4 µM (active). The AC50 in [7] is 10.7 µM (active).
For `COc1ccc(CNC(=O)C2CCN(S(=O)(=O)c3ccc4c(c3)C(C)(C)C(=O)N4C)CC2)cc1`, in assay [5], the EC50 was 55.2 µM (active).
In the case of `CCCC(=O)Nc1cccc(NC(=O)c2cccc([N+](=O)[O-])c2C)c1`, in assay [5], the EC50 was 20.5 µM (active).
Take `COCCCn1c(=O)c2ccccc2n(Cc2cccc(C)c2)c1=O`: in [1], the IC50 was > 100 µM (inactive).
For `COc1ccc(C=O)cc1CN1CCCN(Cc2ccc(Cl)cc2)S1(=O)=O`, in assay [5], the EC50 is listed as > 195 µM (not active).
With `O=C(Nc1cc(-c2ccccc2)n[nH]1)c1ccccc1`, in [1], the IC50 was > 100 µM (inactive).
`O=C(Nc1ccccc1-c1nc2ccccc2s1)c1cccnc1`: the concentration giving a half-maximal response (EC50) in assay [5] is on record as > 195 µM (not active).
With `CSc1ccccc1C(=O)NCCOc1cccc(C)c1`, the IC50 in assay [1] was > 100 µM (inactive).
Regarding `COc1cc(C2NC(=O)NC(C)=C2C(=O)OCC2CCCO2)ccc1O` (centres undefined), in assay [5], the EC50 is recorded as > 195 µM (not active).
As for `CCC(=O)CCC(=O)c1ccc2ccccc2c1`, in [5], the EC50 is listed as > 195 µM (not active).
Consider `Cc1ccc2cc3cc(C(=O)N4CC(C)CC(C)C4)oc3nc2c1` (centres undefined), for which the IC50 in assay [1] was > 100 µM (inactive).
